From patent US4835100A (priority 1986, dated 1989)
“And” between values parts separate entries of the source, which are not always exact repeats. Equal values may be shown once.

Legend:
monoclonal antibody 4E1 = settings: cited from earlier work
[1] = system: monoclonal antibody (1C6); format: binding, mouse
[2] = system: monoclonal antibody (2F5); format: binding, mouse
[3] = system: Rabbit polyclonal anti-aflatoxin B1 antibody; settings: cited from earlier work
[4] = system: monoclonal antibody (2F5); format: binding, mouse; remark: listed apart in the source
[5] = system: serum antibody of mouse 1; format: binding
[6] = system: monoclonal antibody of Groopman et al; settings: cited from earlier work
[7] = system: serum antibody of mouse 2; format: binding

Compound | % Cross-reactivity 4 (monoclonal antibody 4E1) | % Cross-reactivity 3 (1C6) [1] | % Cross-reactivity 1 (2F5) [2] | concentration for 50% inhibition of antibody binding in the ELISA [2] | % Cross-reactivity Rabbit [3] | % Cross-reactivity 2 (2F5) [4] | Percent Inhibition of serum antibody binding to solid phase [5] | % Cross-reactivity 5 [6] | Percent Inhibition of serum antibody binding to solid phase [7]
COc1cc2c(c3oc(=O)c4c(c13)CCC4=O)[C@@H]1C=CO[C@@H]1O2 [Aflatoxin B1, aflatoxin B1] | 100.0% | 100.00% | 100.0% | 2.8 ng/mL | 100.0% | 100.0% | 0 | 100.0% | 44.6 and 44.3 and 28.7 and 33.6 and 23.5
COc1cc2c(c3oc(=O)c4c(c13)CCC4=O)[C@@H]1CCO[C@@H]1O2 [Aflatoxin B2, aflatoxin B2] | 12.6% | 6.7% | 4.0% | 70.8 ng/mL | 131.6% | 0.2% | – | 100.0% | –
COc1cc2c(c3oc(=O)c4c(c13)CCOC4=O)[C@@H]1C=CO[C@@H]1O2 [Aflatoxin G1, aflatoxin G1] | 14.3% | 193.0% | 175.0% | 1.6 ng/mL | 31.2% | 26.6% | – | 5.0% | –
COc1cc2c(c3oc(=O)c4c(c13)CCOC4=O)[C@@H]1CCO[C@@H]1O2 [Aflatoxin G2, aflatoxin G2] | 1.2% | 2.3% | 5.0% | 56.2 ng/mL | 1.3% | < 0.01% | – | 3.6% | –
COc1cc2c(c3oc(=O)c4c(c13)CCC4=O)[C@]1(O)C=CO[C@@H]1O2 [Aflatoxin M1, aflatoxin M1] | 7.3% | 3.9% | 4.5% | 63.1 ng/mL | 0% | 3.7% | – | 100.0% | –
